Source: the kinase profiling compilation of Christmann-Franck et al. (2016)
Several values for one entry are separate records, joined by “and”; a condition that tells them apart may be missing. Equal entries are not always repeated.

Key:
Experiment in all cases: radiometric filter-binding kinase assay, Kinase HotSpot
Settings in all cases: compound 0.5 µM; ATP 10 µM
[1] = target: AURKA (human) (UniProt O14965)
[2] = target: AURKC (human) (UniProt Q9UQB9)
[3] = target: BRAF (human) (UniProt P15056)
Sequence of BRAF (human) (P15056 whole entry, looked up): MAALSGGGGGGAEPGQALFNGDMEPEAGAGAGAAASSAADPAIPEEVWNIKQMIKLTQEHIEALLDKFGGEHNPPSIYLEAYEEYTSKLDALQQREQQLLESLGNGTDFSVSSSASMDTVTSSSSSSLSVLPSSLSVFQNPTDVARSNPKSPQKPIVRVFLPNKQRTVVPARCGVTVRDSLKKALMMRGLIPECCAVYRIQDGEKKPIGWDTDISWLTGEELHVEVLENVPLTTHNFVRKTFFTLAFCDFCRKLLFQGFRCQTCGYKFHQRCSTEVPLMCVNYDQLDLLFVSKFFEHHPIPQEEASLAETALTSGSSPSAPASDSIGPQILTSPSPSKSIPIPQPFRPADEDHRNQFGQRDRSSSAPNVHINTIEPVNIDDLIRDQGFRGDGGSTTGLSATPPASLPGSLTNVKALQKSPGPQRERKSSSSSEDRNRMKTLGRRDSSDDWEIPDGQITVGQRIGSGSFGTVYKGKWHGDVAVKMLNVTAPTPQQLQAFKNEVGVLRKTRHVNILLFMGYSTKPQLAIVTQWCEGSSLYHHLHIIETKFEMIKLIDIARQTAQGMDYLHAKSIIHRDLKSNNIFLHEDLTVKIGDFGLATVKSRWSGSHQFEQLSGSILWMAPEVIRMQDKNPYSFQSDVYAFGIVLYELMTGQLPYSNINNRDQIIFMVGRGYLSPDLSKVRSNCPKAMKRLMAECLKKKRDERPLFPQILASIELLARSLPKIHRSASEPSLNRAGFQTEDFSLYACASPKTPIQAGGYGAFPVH

[4] = target: CAMK1G (human) (UniProt Q96NX5)
[5] = target: CAMKK2 (human) (UniProt Q96RR4)
[6] = target: CDK2 CCNA2 (human) (UniProt P24941+P20248)
[7] = target: CDK4 CCND1 (human) (UniProt P24385+P11802)
[8] = target: CDK4 CCND3 (human) (UniProt P30281+P11802)
[9] = target: CSNK1E (human) (UniProt P49674)
Sequence of CSNK1E (human) (P49674 whole entry, looked up): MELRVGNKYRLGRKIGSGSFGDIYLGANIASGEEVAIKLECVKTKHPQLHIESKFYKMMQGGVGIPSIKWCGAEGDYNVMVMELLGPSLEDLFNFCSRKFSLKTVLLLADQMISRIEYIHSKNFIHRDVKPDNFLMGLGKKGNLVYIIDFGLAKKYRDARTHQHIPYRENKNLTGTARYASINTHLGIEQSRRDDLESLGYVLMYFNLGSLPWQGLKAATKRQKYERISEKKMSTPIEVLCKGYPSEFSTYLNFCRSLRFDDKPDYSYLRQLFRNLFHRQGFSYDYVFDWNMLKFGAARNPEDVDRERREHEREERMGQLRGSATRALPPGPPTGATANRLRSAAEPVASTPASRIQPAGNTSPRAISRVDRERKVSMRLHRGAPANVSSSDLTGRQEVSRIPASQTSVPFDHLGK

[10] = target: CSNK2A1 (human) (UniProt P68400)
[11] = target: DSTYK (human) (UniProt Q6XUX3)
[12] = target: EGFR (human) (UniProt P00533)
[13] = target: EPHA6 (human) (UniProt Q9UF33)
[14] = target: EPHB2 (human) (UniProt P29323)
[15] = target: EPHB3 (human) (UniProt P54753)
[16] = target: FYN (human) (UniProt P06241)
Sequence of FYN (human) (P06241 whole entry, looked up): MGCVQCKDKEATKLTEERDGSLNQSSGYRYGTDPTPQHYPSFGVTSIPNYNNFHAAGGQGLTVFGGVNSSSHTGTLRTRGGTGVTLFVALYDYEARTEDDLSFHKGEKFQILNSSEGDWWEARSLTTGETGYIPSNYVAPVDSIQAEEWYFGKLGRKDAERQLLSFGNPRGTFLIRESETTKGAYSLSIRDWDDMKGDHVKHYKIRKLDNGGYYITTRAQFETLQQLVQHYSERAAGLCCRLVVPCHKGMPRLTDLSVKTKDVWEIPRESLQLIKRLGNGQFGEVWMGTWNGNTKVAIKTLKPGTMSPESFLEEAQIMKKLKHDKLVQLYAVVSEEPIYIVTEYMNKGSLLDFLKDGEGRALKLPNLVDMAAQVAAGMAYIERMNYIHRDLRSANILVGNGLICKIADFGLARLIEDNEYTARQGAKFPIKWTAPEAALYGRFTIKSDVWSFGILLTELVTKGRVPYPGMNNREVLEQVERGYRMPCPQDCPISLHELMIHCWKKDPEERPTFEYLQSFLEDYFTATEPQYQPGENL

[17] = target: HCK (human) (UniProt P08631)
[18] = target: IKBKE (human) (UniProt Q14164)
[19] = target: IRAK4 (human) (UniProt Q9NWZ3)
[20] = target: JAK3 JH1 JH2 (human) (UniProt P52333)
[21] = target: LCK (human) (UniProt P06239)
[22] = target: LYN (human) (UniProt P07948)
Sequence of LYN (human) (P07948 whole entry, looked up): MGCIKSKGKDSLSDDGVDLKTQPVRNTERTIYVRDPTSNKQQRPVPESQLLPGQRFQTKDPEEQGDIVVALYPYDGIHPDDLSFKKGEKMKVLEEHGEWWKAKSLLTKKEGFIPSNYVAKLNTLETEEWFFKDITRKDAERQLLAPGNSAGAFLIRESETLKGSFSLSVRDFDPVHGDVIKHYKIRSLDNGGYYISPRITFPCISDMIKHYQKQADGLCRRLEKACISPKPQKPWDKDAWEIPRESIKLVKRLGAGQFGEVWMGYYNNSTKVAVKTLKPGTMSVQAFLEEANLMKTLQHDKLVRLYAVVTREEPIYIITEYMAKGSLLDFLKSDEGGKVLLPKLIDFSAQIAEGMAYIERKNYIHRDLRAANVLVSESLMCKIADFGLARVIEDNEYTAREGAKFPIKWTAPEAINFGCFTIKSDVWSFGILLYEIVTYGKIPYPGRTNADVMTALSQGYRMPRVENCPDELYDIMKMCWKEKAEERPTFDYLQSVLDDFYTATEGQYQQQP

[23] = target: MAP2K1 (human) (UniProt Q02750)
[24] = target: MAP3K8 (human) (UniProt P41279)
[25] = target: MAP4K4 (human) (UniProt O95819)
[26] = target: MAP4K5 (human) (UniProt Q9Y4K4)
Sequence of MAP4K5 (human) (Q9Y4K4 whole entry, looked up): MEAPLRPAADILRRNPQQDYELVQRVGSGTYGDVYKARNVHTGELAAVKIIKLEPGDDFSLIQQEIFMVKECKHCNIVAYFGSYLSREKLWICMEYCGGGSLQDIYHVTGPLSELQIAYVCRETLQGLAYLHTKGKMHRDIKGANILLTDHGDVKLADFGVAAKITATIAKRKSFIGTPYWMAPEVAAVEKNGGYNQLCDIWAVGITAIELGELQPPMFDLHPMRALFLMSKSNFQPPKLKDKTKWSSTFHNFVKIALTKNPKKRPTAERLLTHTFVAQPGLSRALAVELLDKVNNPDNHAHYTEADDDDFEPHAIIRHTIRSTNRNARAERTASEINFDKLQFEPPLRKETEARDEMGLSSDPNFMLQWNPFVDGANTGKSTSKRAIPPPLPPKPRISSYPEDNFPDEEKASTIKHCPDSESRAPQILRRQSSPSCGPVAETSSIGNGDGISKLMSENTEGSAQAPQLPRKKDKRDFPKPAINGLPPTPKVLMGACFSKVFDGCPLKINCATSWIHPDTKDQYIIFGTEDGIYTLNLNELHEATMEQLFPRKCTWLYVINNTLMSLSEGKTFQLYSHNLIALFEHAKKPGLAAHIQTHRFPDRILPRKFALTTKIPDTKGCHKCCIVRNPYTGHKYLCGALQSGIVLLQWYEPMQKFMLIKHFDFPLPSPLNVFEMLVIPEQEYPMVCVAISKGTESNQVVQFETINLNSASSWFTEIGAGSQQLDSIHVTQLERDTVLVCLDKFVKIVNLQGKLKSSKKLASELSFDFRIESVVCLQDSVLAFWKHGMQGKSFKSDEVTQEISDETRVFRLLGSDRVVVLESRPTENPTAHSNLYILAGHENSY

[27] = target: MARK1 (human) (UniProt Q9P0L2)
[28] = target: MINK1 (human) (UniProt Q8N4C8)
[29] = target: MLTK (human) (UniProt Q9NYL2)
Sequence of MLTK (human) (Q9NYL2 whole entry, looked up): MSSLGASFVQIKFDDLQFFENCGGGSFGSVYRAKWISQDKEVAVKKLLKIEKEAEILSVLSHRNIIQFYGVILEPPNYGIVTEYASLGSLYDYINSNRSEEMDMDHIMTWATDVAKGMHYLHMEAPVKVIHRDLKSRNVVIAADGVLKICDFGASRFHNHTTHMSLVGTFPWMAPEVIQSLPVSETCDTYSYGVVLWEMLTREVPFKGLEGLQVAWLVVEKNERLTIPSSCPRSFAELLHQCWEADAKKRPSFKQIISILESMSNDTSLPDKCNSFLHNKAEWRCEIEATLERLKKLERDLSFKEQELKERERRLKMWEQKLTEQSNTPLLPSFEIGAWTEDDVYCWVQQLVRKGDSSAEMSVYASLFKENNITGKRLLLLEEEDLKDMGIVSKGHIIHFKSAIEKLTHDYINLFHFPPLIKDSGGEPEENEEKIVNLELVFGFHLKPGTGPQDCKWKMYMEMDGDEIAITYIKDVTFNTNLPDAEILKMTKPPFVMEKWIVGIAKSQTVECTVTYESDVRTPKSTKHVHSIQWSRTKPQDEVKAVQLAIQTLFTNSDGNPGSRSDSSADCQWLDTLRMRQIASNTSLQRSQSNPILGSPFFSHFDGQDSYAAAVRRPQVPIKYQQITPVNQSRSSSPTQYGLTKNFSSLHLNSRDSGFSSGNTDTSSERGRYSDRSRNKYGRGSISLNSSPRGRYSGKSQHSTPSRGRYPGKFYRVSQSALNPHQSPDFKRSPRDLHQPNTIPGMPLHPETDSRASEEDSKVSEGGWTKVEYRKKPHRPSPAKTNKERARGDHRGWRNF

[30] = target: MST1R (human) (UniProt Q04912)
[31] = target: MYO3B (human) (UniProt Q8WXR4)
[32] = target: NEK3 (human) (UniProt P51956)
[33] = target: PAK6 (human) (UniProt Q9NQU5)
[34] = target: PHKG2 (human) (UniProt P15735)
[35] = target: PRKACG (human) (UniProt P22612)
Sequence of PRKACG (human) (P22612 whole entry, looked up): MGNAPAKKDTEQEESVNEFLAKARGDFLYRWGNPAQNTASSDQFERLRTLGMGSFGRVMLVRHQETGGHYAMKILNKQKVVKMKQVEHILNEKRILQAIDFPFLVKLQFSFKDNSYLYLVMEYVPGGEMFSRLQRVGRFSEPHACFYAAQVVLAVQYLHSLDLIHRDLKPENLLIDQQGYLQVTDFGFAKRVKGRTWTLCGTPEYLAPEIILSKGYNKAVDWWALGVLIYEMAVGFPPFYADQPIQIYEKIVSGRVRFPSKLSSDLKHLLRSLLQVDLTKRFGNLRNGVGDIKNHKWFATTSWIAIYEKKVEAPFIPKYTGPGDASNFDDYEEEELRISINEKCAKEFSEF

[36] = target: PRKCA (human) (UniProt P17252)
[37] = target: PRKCB1 (human) (UniProt P05771)
[38] = target: STK11 (human) (UniProt Q15831)
[39] = target: STK38 (human) (UniProt Q15208)
[40] = target: STK4 (human) (UniProt Q13043)
[41] = target: TLK2 (human) (UniProt Q86UE8)
[42] = target: ULK3 (human) (UniProt Q6PHR2)
Sequence of ULK3 (human) (Q6PHR2 whole entry, looked up): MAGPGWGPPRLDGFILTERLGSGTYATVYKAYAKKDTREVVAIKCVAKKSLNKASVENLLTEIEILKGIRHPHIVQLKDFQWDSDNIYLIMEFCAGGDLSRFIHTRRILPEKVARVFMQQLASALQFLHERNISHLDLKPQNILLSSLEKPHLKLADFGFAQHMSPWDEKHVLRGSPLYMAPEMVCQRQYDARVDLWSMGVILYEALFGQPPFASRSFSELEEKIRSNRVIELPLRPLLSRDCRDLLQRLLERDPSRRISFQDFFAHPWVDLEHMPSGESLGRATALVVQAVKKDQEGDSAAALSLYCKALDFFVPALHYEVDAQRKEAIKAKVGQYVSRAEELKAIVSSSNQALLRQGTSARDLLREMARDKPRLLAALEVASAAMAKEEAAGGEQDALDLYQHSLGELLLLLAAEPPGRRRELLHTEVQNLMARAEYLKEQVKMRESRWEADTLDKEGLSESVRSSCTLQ

Sequence of AURKC (human) (Q9UQB9 whole entry, looked up): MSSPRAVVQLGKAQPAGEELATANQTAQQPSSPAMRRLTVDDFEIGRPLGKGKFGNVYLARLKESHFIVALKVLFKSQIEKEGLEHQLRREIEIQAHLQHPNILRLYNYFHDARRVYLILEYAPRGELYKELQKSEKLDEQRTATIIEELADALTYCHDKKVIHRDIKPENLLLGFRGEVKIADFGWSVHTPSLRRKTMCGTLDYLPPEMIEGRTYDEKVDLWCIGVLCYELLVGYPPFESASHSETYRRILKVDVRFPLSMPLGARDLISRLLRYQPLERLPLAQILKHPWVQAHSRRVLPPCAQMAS

For `FC(F)(F)c1ccc(/C=C/c2nc(COc3ccc(CCCCn4ccnn4)cc3)co2)cc1`, the residual activity [1] was 111%, the residual activity [2] was 97.1% and the residual activity [3] was 94.3%. It also gave a residual activity [4] of 95%, a residual activity [5] of 101% and a residual activity [6] of 87.9%. It also gave a residual activity [7] of 96.8%, a residual activity [8] of 119% and a residual activity [9] of 95.5%. The residual activity [10] was 97.5%, the residual activity [11] was 88.8% and the residual activity [12] was 97.7%. It also gave a residual activity [13] of 99.3%, a residual activity [14] of 98.3% and a residual activity [15] of 94.9%. For the same molecule, the residual activity [16] was 97%, the residual activity [17] was 93.9% and the residual activity [18] was 94.8%. It also gave a residual activity [19] of 97.7%, a residual activity [20] of 93% and a residual activity [21] of 92.1%. The residual activity [22] was 104% and 95.8%, the residual activity [23] was 120% and the residual activity [24] was 90.8%. The residual activity [25] was 95.1%, the residual activity [26] was 96.5% and the residual activity [27] was 102%. It also gave a residual activity [28] of 96.8%, a residual activity [29] of 98.5% and a residual activity [30] of 104%. The residual activity [31] was 93.7%, the residual activity [32] was 100% and the residual activity [33] was 100%. The residual activity [34] was 93.5%, the residual activity [35] was 105% and the residual activity [36] was 111%. The residual activity [37] was 103%, the residual activity [38] was 104% and the residual activity [39] was 102%. The residual activity [40] was 97.5%, the residual activity [41] was 98.6% and the residual activity [42] was 99.5%.
